Test results as given in patent publication US5001156A, “Lipophilic quaternary ammonium salicylates, their use in cosmetics and in dermopharmacy” (priority 1986, dated 1991).

test system: Propionibacterium acnes strain ATCC 6919; assay: Minimal Inhibitory Concentration (MIC) by the dilution method; assay type: cell-based; settings: Propionibacterium acnes ATCC 6919, DMSO;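 note: MIC reported in µg/ml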

Which MIC does the source give for `CCCCCCCCCCCC(=O)c1ccc(O)c(C(=O)[O-])c1.C[N+](C)(C)C` [Compound 15, N,N,N,N-tetramethylammonium 5-dodecanoylsalicylate] here?
Its MIC is 2.5 µg/mL.

With `CCCCCCCCCCCC(=O)c1ccc(O)c(C(=O)[O-])c1.CCCCCCCCCCCCCCCC[N+]12CCN(CC1)CC2` [Compound 23, 1'-azonia-4'-azabicyclo[2.2.2]octylhexadecane 5-dodecanoylsalicylate] as the compound, how does the MIC read?
The MIC was 1.5 µg/mL.

`CC(C)(C)CC(C)(C)c1ccc(OCCOCC[N+](C)(C)Cc2ccccc2)cc1.CCCCCCCC(=O)c1ccc(O)c(C(=O)[O-])c1` [Compound 24, benzethonium 5-octanoylsalicylate] was tested. Which MIC did it give?
Its MIC is 1.2 µg/mL.

`CC(C)(C)CC(C)(C)c1ccc(OCCOCC[N+](C)(C)Cc2ccccc2)cc1.CCCCCCCCCCCC(=O)c1ccc([O-])c(C(=O)O)c1` [Compound 25, benzethonium 5-dodecanoylsalicylate] was tested. Which MIC did it give?
The MIC was 2 µg/mL.

How did the MIC turn out when “Hexadecyltrimethylammonium laurate [Compound 2, reference compound]” was run?
Its MIC is 26 µg/mL.

With “Hexadecyltrimethylammonium stearate [Compound 3, reference compound]” as the compound, how does the MIC read?
Its MIC is 25 µg/mL.

For “N-(2-Hydroxyethyl)-N,N,N-trimethylammonium salicylate [Compound 19, reference compound]”, which MIC is on record?
The MIC was > 100 µg/mL.

Which MIC does the source give for “N-Hexadecyl-N,N,N-trimethylammonium salicylate [Compound 1, reference compound]” here?
The MIC was 21 µg/mL.

Which MIC does the source give for “N-benzyl-N,N,N-trimethylammonium 5-decanoylsalicylate [Compound 13]” here?
The MIC was 3.2 µg/mL.

For “N-benzyl-N,N-dimethyl-N-hexadecylammonium 5-decanoylsalicylate [Compound 11]”, which MIC is on record?
Its MIC is 1.5 µg/mL.

For “N-benzyl-N,N-dimethyl-N-hexadecylammonium 5-dodecanoylsalicylate [Compound 12]”, which MIC is on record?
The MIC was 1 µg/mL.

Which MIC does the source give for “N-benzyl-N,N-dimethyl-N-hexadecylammonium 5-octanoylsalicylate [Compound 10]” here?
The MIC was 0.54 µg/mL.

“N-dodecyl-N-methylmorpholinium 5-decanoylsalicylate [Compound 21]” was tested. Which MIC did it give?
The MIC was 9 µg/mL.

For “N-hexadecyl-N,N,N-trimethylammonium 5-decanoylsalicylate [Compound 5]”, which MIC is on record?
Its MIC is 2.3 µg/mL.

For “N-hexadecyl-N,N,N-trimethylammonium 5-dodecanoylsalicylate [Compound 6]”, which MIC is on record?
Its MIC is 3.2 µg/mL.

“N-hexadecyl-N,N,N-trimethylammonium 5-octanoylsalicylate [Compound 4]” was tested. Which MIC did it give?
Its MIC is 8 µg/mL.

For “N-hexadecyl-N,N-dimethyl-N-(β-hydroxyethyl)ammonium 5-decanoylsalicylate [Compound 14]”, which MIC is on record?
Its MIC is 3.6 µg/mL.

How did the MIC turn out when “N-hexadecyl-N-methylimidazolinium 5-dodecanoylsalicylate [Compound 20]” was run?
The MIC was 13.5 µg/mL.

With “N-hexadecylpyridinium 5-decanoylsalicylate sesquihydrate [Compound 8]” as the compound, how does the MIC read?
The MIC was 1.2 µg/mL.

“N-hexadecylpyridinium 5-dodecanoylsalicylate hydrate [Compound 9]” was tested. Which MIC did it give?
The MIC was 1.2 µg/mL.

With “N-hexadecylpyridinium 5-octanoylsalicylate monohydrate [Compound 7]” as the compound, how does the MIC read?
Its MIC is 2.4 µg/mL.

For “N-methyl-N-octylpiperidinium 5-dodecanoylsalicylate [Compound 22]”, which MIC is on record?
The MIC was 4.9 µg/mL.

With “dimethylethyldodecylammonium 5-decanoylsalicylate [Compound 16]” as the compound, how does the MIC read?
Its MIC is 6.2 µg/mL.

With “trimethyl-(β-hydroxyethyl)ammonium 5-decanoylsalicylate [Compound 17]” as the compound, how does the MIC read?
The MIC was 11 µg/mL.

“trimethyl-(β-hydroxyethyl)ammonium 5-dodecanoylsalicylate [Compound 18]” was tested. Which MIC did it give?
Its MIC is 4.8 µg/mL.
